Structures can show the parent of a compound that is named as a salt.

The subject of assay [1] is HCT116. Put plainly: efficacy (fitted maximal change in viability relative to DMSO control); higher = less cytotoxic (negative = loss of viability). The following applies: 48 h.
For assay [2], the system named is HCT116. Put plainly: AC50 cell viability (CellTiter-Glo); higher = less potent. The following applies: 48 h. Background: ATP-based viability assays read luminescence as a measure of living cells.
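For AC50 cell viability (CellTiter-Glo) in this document: HCT116 colorectal carcinoma cells screened at five concentrations per compound, luminescent viability scaled between DMSO wells and empty wells on each plate, curves fitted per compound.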
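For efficacy (fitted maximal change in viability relative to DMSO control) in this document: Luminescence-based viability readout, five doses per compound, normalized against on-plate DMSO and empty-well controls, followed by dose-response curve fitting for every drug.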

Consider `O=C(Nc1cccc(Br)c1)c1cccc([S+](=O)([O-])N2CCCCCC2)c1` [Ak-7], for which, in the assay with HCT116 [1], the efficacy was -59.7%. Besides, the AC50 cell viability with HCT116 [2] is 14.8 µM.

For the molecule `CCC[S+]([O-])c1ccc2[nH]c(NC(=O)OC)nc2c1` (stereo not drawn) [Albendazole oxide], in the assay on HCT116 [1], the efficacy is -45.3%. For the same molecule, the AC50 cell viability in the assay with HCT116 [2] turned out to be 13.2 µM.

Regarding `COc1cccc2c1C(=O)c1c(O)c3c(c(O)c1C2=O)C[C@@](O)(/C(CO)=N/NC(=O)CCCCCN1C(=O)C=CC1=O)C[C@@H]3O[C@H]1C[C@H](N)[C@H](O)[C@H](C)O1` [Aldoxorubicin hydrochlorid], the efficacy in the assay with HCT116 [1] is -73.6%. This molecule also came in with an AC50 cell viability in the assay with HCT116 [2] of 2.35 µM.

In the case of `COC1=CC=CC(=C1/C2=N/CC3=C(N=C(NC4=CC(=C(C=C4)C(O)=O)OC)N=C3)C5=CC=C(Cl)C=C25)F` [Alisertib], in the assay with HCT116 [1], the efficacy is -41.5%. In the assay on HCT116 [2], this molecule displayed an AC50 cell viability of 0.417 µM.

In the case of `O=C1c2cccc(O)c2C(=O)c2c(O)cc(CO)cc21` [Aloe-emodin], in the assay on HCT116 [1], the efficacy was -47.2%. In addition, the AC50 cell viability with HCT116 [2] was 11.8 µM.

With `Cc1nc(NC(=O)N2CCC[C@H]2C(N)=O)sc1-c1ccnc(C(C)(C)C(F)(F)F)c1` [Alpelisib], in the assay on HCT116 [1], the efficacy was -64.3%. This molecule also came in with an AC50 cell viability with HCT116 [2] of 14.8 µM.

For `CO[C@H]1/C=C\C=C(\C)C(=O)NC2=CC(=O)C(NCCN(C)C)=C(C[C@@H](C)C[C@H](OC)[C@H](O)[C@@H](C)/C=C(/C)[C@@H]1OC(N)=O)C2=O` [Alvespimycin hydrochloride], in the assay on HCT116 [1], the efficacy was -92.8%. The molecule further gave an AC50 cell viability in the assay with HCT116 [2] of 0.372 µM.

In the case of `CCN(CC)CCNC(=O)c1c(C)[nH]c(/C=C2/C(=O)Nc3ccc(-c4csc(-c5ccccc5)n4)cc32)c1C` [Amcasertib], the efficacy with HCT116 [1] is -99.9%. In the assay with HCT116 [2], the AC50 cell viability was 20.9 µM.

In the case of `CCCCc1oc2ccccc2c1C(=O)c1cc(I)c(OCCN(CC)CC)c(I)c1` [Amiodarone hydrochloride], the efficacy in the assay on HCT116 [1] was -71.8%. In the assay on HCT116 [2], this molecule returned an AC50 cell viability of 23.5 µM.

With `CCCCCCCOc1ccc(CCC(N)(CO)CO)cc1C(F)(F)F` [Amiselimod hydrochloride], in the assay with HCT116 [1], the efficacy is -96.7%. The molecule further gave an AC50 cell viability with HCT116 [2] of 10.5 µM.

For `CN(C)CCN1C(=O)c2cccc3cc(N)cc(c23)C1=O` [Amonafide], the efficacy in the assay on HCT116 [1] is -72.8%. For the same molecule, the AC50 cell viability in the assay on HCT116 [2] amounted to 4.17 µM.

Consider `CC(=O)[C@]1(N)Cc2c(O)c3c(c(O)c2[C@@H](O[C@H]2C[C@H](O)[C@H](O)CO2)C1)C(=O)c1ccccc1C3=O` [Amrubicin], for which, in the assay on HCT116 [1], the efficacy was -75.8%. In the assay on HCT116 [2], the AC50 cell viability came out at 6.61 µM.

As to `COc1cc(N[S+](C)(=O)[O-])ccc1Nc1c2ccccc2nc2ccccc12` [Amsacrine], in the assay with HCT116 [1], the efficacy is -124%. This molecule also returned an AC50 cell viability with HCT116 [2] of 11.8 µM.

Turning to `S=C(NCc1ccc2c(c1)OCO2)N1CCN(c2ncnc3c2oc2ccccc23)CC1` [Amuvatinib], the efficacy in the assay on HCT116 [1] was -38.8%. The AC50 cell viability in the assay with HCT116 [2] worked out at 1.86 µM.

As to `C=C1CCC2[C@](C)(CO)C(O)CC[C@]2(C)C1C/C=C1/C(=O)OCC1O` (stereo partly drawn) [Andrographolide], in the assay with HCT116 [1], the efficacy is -65.7%. In the assay with HCT116 [2], the AC50 cell viability was determined as 7.42 µM.

On to `C=C1CC[C@@H]2[C@](C)(CO)[C@H](O)CC[C@@]2(C)[C@@H]1C/C=C1/C(=O)OC[C@H]1O` [Andrographolide], for which, in the assay on HCT116 [1], the efficacy is -68.1%. Also, in the assay with HCT116 [2], the AC50 cell viability was determined as 4.68 µM.

For `COc1cc2c(Oc3ccc4[nH]c(C)cc4c3F)ccnc2cc1OCC1(N)CC1` [Anlotinib], in the assay on HCT116 [1], the efficacy was -112%. Further, the AC50 cell viability in the assay with HCT116 [2] was found to be 16.6 µM.

With `Cc1cccc(/C=N/Nc2cc(N3CCOCC3)nc(OCCc3ccccn3)n2)c1` [Apilimod], the efficacy in the assay on HCT116 [1] is -99.4%. Further, the AC50 cell viability with HCT116 [2] worked out at 1.18 µM.

In the case of `CCOC(=O)c1c(CSc2ccccc2)n(C)c2cc(Br)c(O)c(CN(C)C)c12` [Arbidol], the efficacy in the assay on HCT116 [1] is -75.8%. In the assay on HCT116 [2], this molecule returned an AC50 cell viability of 14.8 µM.

With `CC/1=C/C[C@]23O[C@@]2(C)CC[C@@H]4[C@H](OC(=O)C4=C)[C@@H]13` [Arglabin], the efficacy in the assay on HCT116 [1] is -79%. In the assay with HCT116 [2], the AC50 cell viability was 14.8 µM.

For the molecule `O=C1CCc2ccc(OCCCCN3CCN(c4cccc(Cl)c4Cl)CC3)cc2N1` [Aripiprazole], the efficacy with HCT116 [1] was -93.8%. Moreover, in the assay on HCT116 [2], the AC50 cell viability is 18.6 µM.

For `C[C@@H]1CC[C@H]2[C@@H](C)C(=O)O[C@@H]3O[C@@]4(C)CC[C@@H]1[C@]32OO4` [Artemisinin], the efficacy in the assay on HCT116 [1] is -30.7%. For the same molecule, the AC50 cell viability in the assay on HCT116 [2] worked out at 0.0295 µM.

For the molecule `C[C@H]1[C@H](O)O[C@@H]2O[C@@]3(C)CC[C@H]4[C@H](C)CC[C@@H]1[C@@]24OO3` [Artenimol], in the assay on HCT116 [1], the efficacy was -78.7%. The same molecule registered an AC50 cell viability with HCT116 [2] of 2.63 µM.

For `C[C@H]1[C@H](OC(=O)CCC(=O)O)O[C@@H]2O[C@@]3(C)CC[C@H]4[C@H](C)CC[C@@H]1[C@@]24OO3` [Artesunate], in the assay on HCT116 [1], the efficacy was -62.6%. For the same molecule, the AC50 cell viability in the assay on HCT116 [2] was 4.17 µM.
